# Where a name gives a salt, the structure may show the parent alone.
# Legend:
# [1] = system: Vascular smooth muscle cells (rSMC); assay: Rat smooth muscle cell proliferation assay; type: cell-based; settings: 48 h; male SD rat aorta rSMC; thrombin 0.1 unit/ml; 2 days; MTT, OD 590 nm; read-out: Rat SMC IC50
# Experimental: [Rat Smooth Muscle Cell Proliferation Assay]
# Vascular smooth muscle cells (rSMC) were isolated from male SD rat aorta by the explant method. DMEM medium (Sigma) containing 10% fetal bovine serum (GibcoBRL), streptomycin and penicillin was used as the proliferation medium, and subculture was carried out at 37° C. in the presence of 5% CO2. Culture was initiated after adding 100 μl of rSMC suspension in proliferation medium at a concentration of 1×10^4 cells/ml, to a 96-well plate. After 3 days, cells were rinsed twice with 100 μl of DMEM medium, the medium was exchanged with 100 μl of DMEM medium containing 0.1% albumin (starvation medium), and serum starvation was initiated. The medium was exchanged two days after the serum starvation, 80 μl of starvation medium and 10 μl of the test compound diluted to different concentrations with the starvation medium were added, and then 10 μl of thrombin dissolved in the starvation medium (final concentration: 0.1 unit/ml) was added prior to further incubation for 2 days.
# Upon adding 20 μl of MTT (3-[4,5-dimethylthiazol-2-yl]-2,5-diphenyltetrazolium bromide) dissolved in DPBS to 7.5 mg/ml, incubation was continued for 4 hours. The medium was removed by suction, 50 μl of a 10% SDS/0.029% ammonia solution was added, and the mixture was allowed to stand for 2 hours in a CO2 incubator for complete lysis of the cells. As an index of cell proliferation, the OD 590 nm was measured using a plate reader (EL340, BIO-TEK Instruments Inc.), and the control OD value (OD value in the absence of the test compound) minus the OD value in the presence of the test compound was divided by the control OD value minus the blank OD value (OD value without thrombin stimulation) to determine the inhibition ratio, from which the IC50 value was calculated.
# [2] = system: platelet rich plasma (PRP), thrombin-induced platelet aggregation; assay: Inhibitory effects on platelet aggregation using platelet rich plasma; type: cell-based; settings: Homo sapiens, 0.1 h, PRP of healthy adult, aggregation initiated with thrombin (0.5–1.5 units/ml), area under aggregation curve, 6 minutes, read-out: Thr IC50
# Experimental: [Inhibitory Effects on Platelet Aggregation Using Platelet Rich Plasma]
# Blood was sampled from a healthy adult who had taken no drugs for one week, and 3.8% citric acid (a ratio of 1:9 with respect to the blood) was added as an anticoagulant. The mixture was then centrifuged at 100 g for 10 minutes at room temperature to yield platelet rich plasma (PRP). The PRP-removed blood was further centrifuged at 1000 g for 10 minutes to yield platelet poor plasma (PPP). The number of platelet was counted using a multi-parameter automatic hemocyte counter (K4500, Sysmex), and the PRP was diluted to approximately 300,000/μl with the PPP. The platelet aggregation activity was determined in the following manner using an Aggregometer (MC Medical). GPRP-NH2 (final concentration 1 mM, 25 μl) was added as a fibrin polymerization inhibitor to the PRP (175 μl), after which Ca-free Tyrode solution (control) or the test compound suspension (25 μl) at different concentrations was added, incubation was performed at 37° C. for 3 minutes and then 25 μl of thrombin at the minimum concentration required to produce maximum aggregation (final concentration: optimum concentration among 0.5–1.5 units/ml) was added, for initiation of platelet aggregation. PRP and Ca-free Tyrode solution (control) or the preparation solutions at various concentrations were pre-incubated at 37° C. for 60 minutes, prior to the platelet aggregation reaction in some experiments. After addition of thrombin, the aggregation reaction was examined for 6 minutes and the areas under the aggregation curves were compared to determine the inhibition ratio, from which the IC50 value was calculated.
# thrombin receptor = biological target: T1, thrombin receptor (Homo sapiens, UniProt P25116); assay: Receptor binding assay ([3H] high affinity TRAP, platelet membrane); settings: platelet membrane of healthy adult; 25 nM [3H] high affinity TRAP; 37° C., 1 hour; read-out: RBA IC50
# T1 construct: centrifuged at 40,000 g for 60 minutes to yield platelet membrane; from tissue; host or cells: platelet membrane prepared from donor blood (platelet rich plasma)
# T1 sequence (P25116 22-425): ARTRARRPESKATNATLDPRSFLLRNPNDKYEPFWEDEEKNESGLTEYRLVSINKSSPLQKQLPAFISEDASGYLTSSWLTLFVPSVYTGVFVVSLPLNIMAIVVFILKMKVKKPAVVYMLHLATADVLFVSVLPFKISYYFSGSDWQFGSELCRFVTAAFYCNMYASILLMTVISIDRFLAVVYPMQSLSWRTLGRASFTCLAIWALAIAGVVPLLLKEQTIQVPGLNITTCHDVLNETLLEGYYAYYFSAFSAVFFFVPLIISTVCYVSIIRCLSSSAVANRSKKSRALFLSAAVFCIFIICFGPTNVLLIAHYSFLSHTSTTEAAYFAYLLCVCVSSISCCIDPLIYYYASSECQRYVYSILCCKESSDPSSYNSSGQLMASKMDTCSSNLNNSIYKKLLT
# Experimental: Blood was sampled from a healthy adult who had taken no drugs for one week, and 3.8% citric acid (a ratio of 1:9 with respect to the blood) was added as an anticoagulant. The mixture was then centrifuged at 100 g for 10 minutes at room temperature to yield platelet rich plasma (PRP). The platelet precipitate obtained by centrifuging the PRP was homogenized with a Dounce homogenizer, and then centrifuged at 40,000 g for 60 minutes to yield platelet membrane. The platelet membrane was suspended in a solution prepared by adding DMSO (dimethyl sulfoxide) at 1% concentration to Buffer 1: a 50 mM Tris-HCl buffer containing 10 mM MgCl2 and 1 mM EGTA (ethylene glycol tetraacetic acid), and the suspension was stored at −80° C. Bovine albumin and DMSO were added to Buffer 1 at 0.1% and 20%, respectively, to make preparation solutions for the test compound. The test compounds (20 μl) diluted at various concentrations with the preparation solutions were added to a 96-well multiscreen plate. […] After then adding 100 μl of the previously prepared platelet membrane suspension (0.4 mg/ml) and mixing, incubation was performed at 37° C. for 1 hour. The reaction mixture was suction filtered and then rinsed 3 times with 200 μl of Buffer 1. Next, 30 μl of liquid scintillator was added for measurement of the radioactivity of the plate using a Top Counter (Packard), the value of the radioactivity in the presence of the test compound minus non-specific binding portion was divided by the specific binding value (the value of the binding in the absence of the compound minus the non-specific binding portion) to determine the binding ratio, from which the IC50 value was calculated. The non-specific binding was the value obtained with addition of 10 μM of high affinity TRAP.
SMILES,IC50 [1],IC50 [2],IC50 (thrombin receptor)
"CCOc1cc2c(cc1C(=O)NC)C(=N)N(CC(=O)c1cc(OCC)c(O)c(C(C)(C)C)c1)C2 [Example 109, 2-[2-(3-tert-Butyl-5-ethoxy-4-hydroxy-phenyl)-2-oxo-ethyl]-6-ethoxy-3-imino-2,3-dihydro-1H-isoindole-5-carboxylic acid methylamide hydrobromide]",42 nM,12 nM,30 nM
"CCOc1cc2c(c(F)c1OCC)C(=N)N(CC(=O)c1cc(N3CCNCC3)c(OC)c(C(C)(C)C)c1)C2 [Example 112, 1-(3-tert-Butyl-4-methoxy-5-piperazin-1-yl-phenyl)-2-(5,6-diethoxy-7-fluoro-1-imino-1,3-dihydro-isoindol-2-yl)-ethanone dihydrochloride]",52 nM,28 nM,30 nM
"CCOc1cc2c(c(F)c1OCC)C(=N)N(CC(=O)c1cc(N3CCN(CC(=O)O)CC3)c(OC)c(C(C)(C)C)c1)C2 [Example 127, (4-{3-tert-Butyl-5-[2-(5,6-diethoxy-7-fluoro-1-imino-1,3-dihydro-isoindol-2-yl)-acetyl]-2-methoxy-phenyl}-piperazin-1-yl)-acetic acid dihydrochloride]",150 nM,21 nM,17 nM

# From patent publication US7244730B2, “2-iminopyrrolidine derivatives” (Eisai Co., Ltd, priority 2001, dated 2007)
